Measurements reported in PubChem BioAssay (NCI).
“And” between values parts separate entries of the source, which are not always exact repeats. Equal entries are not always repeated.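 96-well plates; 48 h exposure; 5 concentrations. Endpoints by linear interpolation between flanking doses. Not reached: highest tested concentration assigned. GI50: concentration for 50% inhibition of growth. TGI is the concentration that stops growth completely.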

How the values were obtained:
Assay in all cases: NCI anticancer screen, dose series, 48 h
A549 NSCLC = system: A549 NSCLC
BT-549 breast = system: BT-549 breast
EKVX NSCLC = system: EKVX NSCLC
M14 melanoma = system: M14 melanoma
NCI-H23 lung = system: NCI-H23 lung
NCI-H522 lung = system: NCI-H522 lung
NCI/ADR-RES ovarian = system: NCI/ADR-RES ovarian
SF-268 CNS = system: SF-268 CNS
SN12C renal = system: SN12C renal
SNB-75 CNS = system: SNB-75 CNS

Structure (SMILES) | TGI (A549 NSCLC) | TGI (BT-549 breast) | TGI (EKVX NSCLC) | TGI (M14 melanoma) | TGI (NCI-H23 lung) | TGI (NCI-H522 lung) | TGI (NCI/ADR-RES ovarian) | TGI (SF-268 CNS) | TGI (SN12C renal) | TGI (SNB-75 CNS) [µM] | GI50 (A549 NSCLC) | GI50 (BT-549 breast) | GI50 (EKVX NSCLC) | GI50 (M14 melanoma) | GI50 (NCI-H23 lung) | GI50 (NCI-H522 lung) | GI50 (NCI/ADR-RES ovarian) | GI50 (SF-268 CNS) | GI50 (SN12C renal) | GI50 (SNB-75 CNS) [µM]
CC(=O)CC(OC(C)=O)C1=CCC2C(CC1C)OC(=O)C2C (stereo not given) | > 100 µM | > 100 µM | > 100 µM | > 100 µM | > 100 µM | > 100 µM | > 100 µM | > 100 µM | > 100 µM | > 100 |  |  |  |  |  |  |  |  |  | 
CC1(C)OC1COc1c2occc2cc2ccc(=O)oc12 (stereo not given) | > 100 µM | > 100 µM | > 100 µM | > 100 µM | > 100 µM | > 100 µM | > 100 µM | > 100 µM | > 100 µM | > 100 |  |  |  |  |  |  |  |  |  | 
Cc1nnc(NC(=O)c2nc(S(=O)(=O)Cc3ccc(F)cc3)ncc2Cl)s1 | 35.3 µM | 5.25 µM | 24.3 µM | 10.3 µM | 32.5 µM | 2.46 µM | 50.1 µM | 16.8 µM | 6.56 µM | 17.6 | 18.8 µM | 2.3 µM | 6.73 µM | 2.88 µM | 12.5 µM | 0.729 µM | 14.2 µM | 3.88 µM | 2.39 µM | 3.25
O=C(CCCSc1nc(-c2ccccc2)cc(-c2ccccc2)n1)NO | 10.1 µM | 17 µM | 14.5 µM | 5.29 µM | 6.11 µM | 9.51 µM | 10.5 µM | 5.76 µM | 9.1 µM | 9.55 | 2.63 µM | 2.66 µM | 2.93 µM | 0.927 µM | 2 µM | 1.86 µM | 0.305 µM | 2.03 µM | 1.94 µM | 1.68
CCOC(=S)SCC(=O)O | > 100 µM | > 100 µM | > 100 µM | > 100 µM | > 100 µM | > 100 µM | > 100 µM | > 100 µM | > 100 µM | > 100 |  |  |  |  |  |  |  |  |  | 
Cc1ccc(-n2c3nc(=O)[nH]c(=O)c-3cc3cc([N+](=O)[O-])ccc32)cc1 | > 100 µM | 27.8 µM | 67 µM | 36.6 µM | 29.6 µM | 77.5 µM | 34.4 µM | 54.8 µM | 56.5 µM | 59.4 | 44.6 µM | 6.49 µM | 33.1 µM | 17.3 µM | 13.4 µM | 33.2 µM | 10.7 µM | 17.3 µM | 20.6 µM | 16.6
c1ccc(Sc2ncnc3ccccc23)cc1 | 68.3 µM | 22 µM | 25.1 µM | 27.6 µM | 25.7 µM | 29.1 µM | 35 µM | 41.7 µM | 27.4 µM | 35 | 18.1 µM | 5.42 µM | 10.6 µM | 12.3 µM | 8.52 µM | 7.19 µM | 11.8 µM | 13.9 µM | 10.8 µM | 12.1
CC1(COc2ccc3c(c2)ncn3-c2ccc3cccc(N4CCC(N)CC4)c3n2)COC1 | 4.45 µM and > 10 µM | 12.7 µM and 9.74 µM | 13.2 µM and > 10 µM | 10.1 µM and 6.77 µM | 8.59 µM and 5.28 µM | 3.3 µM and 5.19 µM | 20.6 µM and > 10 µM | 9.15 µM and > 10 µM | 15.3 µM and > 10 µM | 5.65 | 1.83 µM and 2.39 µM | 2.8 µM and 2.64 µM | 3.02 µM and 3.28 µM | 3.55 µM and 2.68 µM | 2.13 µM and 1.94 µM | 1.21 µM and 1.6 µM | 7.04 µM and > 10 µM | 2.74 µM and 2.85 µM | 0.945 µM and 1.12 µM | 0.734
CCn1c(-c2nonc2N)nc2c(C#CC(C)(C)O)nc(OC[C@@H](N)c3ccccc3)cc21 | 9.18 µM | 7.48 µM | 22.4 µM | 8.11 µM | 10.8 µM | 7.9 µM | 11.7 µM | 9.22 µM | 7.66 µM | 5.66 | 4.36 µM | 3.94 µM | 10.4 µM | 4.52 µM | 5.13 µM | 4.28 µM | 5.16 µM | 5.04 µM | 3.96 µM | 2.45
N#Cc1c[nH]n2c(N=Nc3ccc(Cl)cc3)c(O)nc12 | > 100 µM | 77.6 µM | 81.1 µM | > 100 µM | 51.2 µM | > 100 µM | 83.8 µM | 77.4 µM | 57.3 µM | > 100 | 31.9 µM | 28.5 µM | 31.7 µM | 77.3 µM | 18 µM | 26.9 µM | 25 µM | 20.6 µM | 24.1 µM | 40.7
N#CC(C#N)=C/C=C(\Sc1nc2ccccc2s1)c1ccc(Cl)cc1 | 30.5 µM | 26.2 µM | 40 µM | 10.5 µM | 13.2 µM | 41.9 µM | 22.6 µM | 33 µM | > 53.1 µM | 8.82 | 9.32 µM | 11.3 µM | 18.4 µM | 3.19 µM | 3.56 µM | 10.1 µM | 7.19 µM | 14.6 µM | 7.88 µM | 1.31
O=C(/C(=C/c1ccc([N+](=O)[O-])cc1)SCc1ccccc1)c1ccc(Cl)cc1 | 32.2 µM | 6.39 µM | 20.2 µM | 8.59 µM | 14.1 µM | 10.5 µM | 17.7 µM | 13.1 µM | 8.58 µM | 35.7 | 15.1 µM | 2.4 µM | 6.77 µM | 2.63 µM | 3.14 µM | 3.96 µM | 3.38 µM | 3.09 µM | 2.66 µM | 16
O=C1CCCCN1c1ccccc1C#C/C=C\C#Cc1ccccc1C(F)(F)F | 5.16 µM | 14.5 µM | > 50 µM | 2.29 µM | 4 µM | 3.1 µM | 2.48 µM | > 50 µM | 3.67 µM | 11.4 | 1.57 µM | 2.59 µM | 4.08 µM | 0.909 µM | 1.26 µM | 1.19 µM | 0.946 µM | 3.81 µM | 1.59 µM | 1.61
COCCOc1ccc(-c2nc3ccc(-c4nc5ccc(N6CCN(C)CC6)cc5[nH]4)cc3[nH]2)cc1 | 35.2 µM | 3.96 µM | 46.3 µM | 2.5 µM | 5.09 µM | 2.36 µM | > 100 µM | 5.67 µM | 11.8 µM | 3.14 | 8.05 µM | 1.76 µM | 6.56 µM | 0.449 µM | 1.21 µM | 0.341 µM | > 100 µM | 0.576 µM | 1.42 µM | 0.486
